Reference: patent US6812025B2, “Two hybrid assay that detects HIV-1 reverse transcriptase dimerization” (priority 2000, dated 2004)

Columns and labels:
[1] = biological target: p66 and p51 subunits of the HIV-1 RT (Human immunodeficiency virus type 1 group M subtype B, UniProt P12497); assay: Y2H RT heterodimerization assay measuring effect of NNRTIs on b-gal activity (wild-type lexA87-66 + Gal4AD-51); assay type: cell-based; conditions: for enhancement of b-gal activity (relative potency): yeast expressing lexA87-66 and Gal4AD-51, drug added to culture medium
Experimental: (§1) Transformation of yeast and the qualitative β-galactosidase (β-gal) colony lift assay were as published (19). Quantification of protein-protein interactions was determined using the β-gal liquid assay performed on permeabilized yeast grown from three independent transformants using orthonitrophenyl-β-D-galactopyranoside as substrate (19).
Yeast and bacterial strains were as described previously (22). Transformation of yeast, the qualitative b-gal colony lift assay and the quantitative b-gal liquid assay were as previously described (22).
CTY10-5d transformed constructs expressing p66 bait and p51 prey fusions were grown overnight to stationary phase in synthetic complete medium without histidine and leucine and containing 2% glucose (SC-His-Leu). […] Yeast were grown with aeration at 30° C. to OD600=0.5. The equivalent of 1 OD600 unit was pelleted for each treatment and subjected to a quantitative b-gal liquid assay.
To test the effects of NNRTIs on the association of the RT polypeptides we used a yeast genetic assay that measures RT heterodimerization (22). […] To test for the effects of the NNRTIs on this interaction, 10 drugs representing 7 different NNRTI classes were added to the culture medium during growth of the yeast and b-gal levels were determined.

[2] = biological target: p66-His and GST-p51 (Human immunodeficiency virus type 1 group M subtype B, UniProt P04585); assay type: binding, HIV-1; conditions: for enhancement of dimerization of GST-p51 and p66-His in vitro: bacterial lysates, 1-1000 fold molar excess of drug, overnight
Experimental: Cells were induced and then lysed by the addition of 1 mg/ml of lysozyme to 1 ml of lysis buffer [50 mM sodium phosphate buffer (pH 7.8), 500 mM NaCl, 0.5% Nonidet P-40, 5 mM DTT, and 1 μg/ml each of pepstatin A, aprotinin and leupeptin] and clarified. Lysates were combined and incubated for 16 hrs at 4° C. The heterodimer was captured on Glutathione Sepharose 4B beads and unbound subunits were removed by washing with lysis buffer. Heterodimer bound to beads were resolved by SDS/PAGE. For quantification of RT activity, dimers were eluted from beads with 10 mM reduced glutathione in 50 mM Tris (pH 8.0). Samples were assayed for DNA polymerase activity on homopolymeric template-primers for various times, and the activity was determined from the initial slope of the linear phase of the time course.

[3] = tested on: HIV-1; conditions: cited from earlier work
[4] = biological target: T1, lexA87-66L234A and Gal4AD-HA-51L234A (Human immunodeficiency virus type 1 group M subtype B, UniProt P04585, L821A); assay type: cell-based, HIV-1; conditions: yeast grown in efavirenz (1.6 μM) or UC781 (16 μM), compared to no drug
T1 construct: Yeast expressing p66 bait and p51 prey fusions containing the L234A mutation; expressed in transfected cells; host or cells: Saccharomyces cerevisiae CTY10-5d
Source text: Samples were resolved by SDS-PAGE. The leXA87-66 fusion protein was probed using monoclonal antibodies 7E5 which specifically detects p66 (31).
Hemagglutinin (HA) antibodies were used to immunoprecipitate the p51 prey and the presence of any bound p66 bait was then detected using anti-p66 specific antibodies. For coimmunoprecipitation of the p66 bait fusions, samples were divided into two with one part processed without added NNRTI while the other was maintained in drug at the same concentration used during growth of yeast.

[5] = biological target: T2, RT heterodimer (Human immunodeficiency virus type 1 group M subtype B, UniProt P12497); conditions: cited from earlier work
T2 construct: The enzyme is a heterodimer of p66 and p51 subunits

[6] = biological target: T3, p66/p51 heterodimer (Human immunodeficiency virus type 1 group M subtype B, UniProt P12497); conditions: cited from earlier work
T3 construct: The enzyme is a heterodimer of p66 and p51 subunits

[7] = biological target: T3, p66/p51 heterodimer; assay: Y2H system, preliminary tests of TSAO on heterodimerization; assay type: cell-based, HIV-1; conditions: data not shown
Experimental: as §1
To date, there are no HIV-1 RT dimerization inhibitors being used in the clinic. Nevertheless, there are several reports of HIV-1 and HIV-2 RT dimerization inhibitors based on peptides representing the conserved tryptophan repeat region of RT (32, 37). […] However, the possibility that the drug is not taken up by yeast cannot be ruled out. The availability of a Y2H assay for RT dimerization will facilitate the screening for other such inhibitors of this process according to the methods set forth herein.

[8] = biological target: HIV-1 RT (Human immunodeficiency virus type 1 group M subtype B, UniProt P12497); assay: Exogenous RT assay (RT inhibitory activity); assay type: biochemical; conditions: results not shown
[9] = biological target: T4, lexA87 and Gal4AD (UniProt P04386+P0A7C2); assay: Y2H specificity control, empty vectors pSH2-1 and pGADNOT; assay type: cell-based; conditions: serial dilutions, up to 15 μM of drug; data not shown
T4 construct: expressed in transfected cells; host or cells: Saccharomyces cerevisiae (yeast reporter strain)
T4 sequence (P0A7C2 1-87): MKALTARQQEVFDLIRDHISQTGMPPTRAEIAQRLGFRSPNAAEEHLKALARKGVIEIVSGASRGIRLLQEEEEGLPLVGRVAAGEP
T4 sequence (P04386 768-881): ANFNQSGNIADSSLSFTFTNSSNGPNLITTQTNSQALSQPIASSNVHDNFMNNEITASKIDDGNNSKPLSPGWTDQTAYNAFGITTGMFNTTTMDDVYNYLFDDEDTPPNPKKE
Source text: The specificity of the b-gal enhancement by NNRTIs was investigated. […].

CC(C)Nc1cccnc1N1CCN(C(=O)c2cc3cc(NS(C)(=O)=O)ccc3[nH]2)CC1 [delavirdine]
enhancement of b-gal activity (relative potency) [1]: devoid of b-gal enhancing activity
enhancement of dimerization of GST-p51 and p66-His in vitro [2]: inactive in vitro

COc1ccc2c(c1)N(C(=O)OC(C)C)[C@@H](CSC)C(=S)N2 [HBY 097]
enhancement of b-gal activity (relative potency) [1]: most potent
inhibition of HIV-1 replication in vitro [3]: extremely potent inhibitors of HIV-1 replication in vitro

CC(C)=CCOc1cc(NC(=S)c2ccoc2C)ccc1Cl [UC781]
amount of p66 bait coimmunoprecipitated with p51 prey (heterodimer formation), L234A [4]: not for the L234A mutant
binding to the RT heterodimer [5]: bind very tightly
dissociation rates (koff) [5]: very slow dissociation rates
enhancement of b-gal activity (relative potency) [1]: second most potent
inhibition of HIV-1 replication in vitro [3]: extremely potent inhibitors of HIV-1 replication in vitro
enhancement of dimerization of GST-p51 and p66-His in vitro [2]: poor dimerization inducers

CCn1c(=O)c(C)cn([C@@H]2O[C@H](CO[Si](C)(C)C(C)(C)C)C3(OS(=O)(=O)C=C3N)[C@H]2O[Si](C)(C)C(C)(C)C)c1=O (stereo partly drawn) [TSAOe^3T]
destabilization of the p66/p51 heterodimer [6]: more modest destabilization only detectable in the presence of denaturants

2′, 5′-bis-O-(tert-butylidimethylsilyl)-3′-spiro-5″-4″-amino-1′, 2″-oxothiole-2″,2″-dioxide)]-b-D-pentofuranosyl [TSAO]
destabilization of the p66/p51 heterodimer [6]: destabilize the p66/p51 heterodimer
effect on β-gal activity in the Y2H system [7]: no inhibition of β-gal activity
effect on heterodimerization in in vitro binding assays ([2]; preliminary tests, data not shown): reduce heterodimerization

CC(C)OC(=O)c1cc(NC(=S)OC(C)C)ccc1Cl [UC38]
RT inhibitory activity (50% inhibitory concentration), rank [8]: least active
concentration of drug that mediates a 5-fold increase in b-gal activity (rank) ([1]; results not shown): least active

O=C1Nc2ccc(Cl)cc2[C@@](C#CC2CC2)(C(F)(F)F)O1 [efavirenz]
b-gal activity with empty vectors [9]: no increase in b-gal activity

Cc1occc1C(=S)Nc1ccc(Cl)c(/C=N/OC(C)(C)C)c1 [UC10]
enhancement of dimerization of GST-p51 and p66-His in vitro [2]: poor dimerization inducers
